Several values for one entry are separate records, joined by “and”; a condition that tells them apart may be missing. Equal entries are not always repeated.
Columns and labels:
[1] = target: T1, Inhibitor of nuclear factor kappa-B kinase subunit epsilon (Homo sapiens) (UniProt Q14164); settings: at 1 µM
T1 sequence (whole entry): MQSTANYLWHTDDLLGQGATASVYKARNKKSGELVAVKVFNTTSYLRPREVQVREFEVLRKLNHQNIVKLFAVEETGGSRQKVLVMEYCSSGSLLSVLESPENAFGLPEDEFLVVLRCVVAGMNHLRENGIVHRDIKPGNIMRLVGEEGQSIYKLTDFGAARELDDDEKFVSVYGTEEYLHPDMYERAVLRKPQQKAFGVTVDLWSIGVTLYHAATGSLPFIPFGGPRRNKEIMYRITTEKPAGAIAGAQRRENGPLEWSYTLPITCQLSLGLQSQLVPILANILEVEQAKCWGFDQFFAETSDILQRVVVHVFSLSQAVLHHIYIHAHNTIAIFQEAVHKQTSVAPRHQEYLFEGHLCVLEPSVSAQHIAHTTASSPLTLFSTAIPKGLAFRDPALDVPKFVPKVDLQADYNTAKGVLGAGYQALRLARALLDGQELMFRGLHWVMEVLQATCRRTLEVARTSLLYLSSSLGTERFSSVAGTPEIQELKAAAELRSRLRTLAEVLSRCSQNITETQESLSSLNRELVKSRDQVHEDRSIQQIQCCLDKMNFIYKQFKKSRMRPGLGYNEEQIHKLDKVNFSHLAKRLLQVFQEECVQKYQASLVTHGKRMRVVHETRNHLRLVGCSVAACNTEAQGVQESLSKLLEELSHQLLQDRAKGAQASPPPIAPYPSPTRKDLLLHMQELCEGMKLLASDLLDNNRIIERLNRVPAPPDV

[2] = target: T2, Tyrosine-protein kinase Mer (Homo sapiens) (UniProt Q12866); settings: at 10 µM
T2 sequence (whole entry): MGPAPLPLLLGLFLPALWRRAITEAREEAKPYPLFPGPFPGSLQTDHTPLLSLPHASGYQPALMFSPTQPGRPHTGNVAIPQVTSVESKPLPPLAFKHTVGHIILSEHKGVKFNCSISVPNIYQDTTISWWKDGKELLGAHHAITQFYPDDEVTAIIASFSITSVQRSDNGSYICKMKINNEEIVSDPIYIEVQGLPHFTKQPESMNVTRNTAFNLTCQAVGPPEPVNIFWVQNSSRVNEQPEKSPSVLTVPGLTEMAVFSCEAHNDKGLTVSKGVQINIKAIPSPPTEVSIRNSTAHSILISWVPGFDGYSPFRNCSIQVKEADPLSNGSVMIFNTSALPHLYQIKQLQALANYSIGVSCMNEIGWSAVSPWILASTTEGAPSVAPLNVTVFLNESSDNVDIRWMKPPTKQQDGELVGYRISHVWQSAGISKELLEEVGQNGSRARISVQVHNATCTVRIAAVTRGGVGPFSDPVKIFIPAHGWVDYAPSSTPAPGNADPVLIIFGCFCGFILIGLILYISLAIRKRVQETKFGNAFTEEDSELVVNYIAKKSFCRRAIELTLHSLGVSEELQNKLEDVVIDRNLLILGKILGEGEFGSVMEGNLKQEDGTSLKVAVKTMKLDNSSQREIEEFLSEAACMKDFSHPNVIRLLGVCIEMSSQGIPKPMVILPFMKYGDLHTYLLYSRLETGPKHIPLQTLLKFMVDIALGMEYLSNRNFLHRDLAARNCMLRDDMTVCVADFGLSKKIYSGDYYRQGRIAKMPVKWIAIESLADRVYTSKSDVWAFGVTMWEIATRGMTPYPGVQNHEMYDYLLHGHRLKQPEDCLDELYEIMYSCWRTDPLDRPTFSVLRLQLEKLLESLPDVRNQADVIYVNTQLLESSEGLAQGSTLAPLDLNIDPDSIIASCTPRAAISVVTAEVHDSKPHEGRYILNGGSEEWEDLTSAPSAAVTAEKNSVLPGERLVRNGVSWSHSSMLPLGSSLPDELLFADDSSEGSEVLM

Compound	inhibition [1]	inhibition [2]
COc1cc2ncn(-c3cc(OCc4ccccc4Cl)c(C(N)=O)s3)c2cc1OC	8% and 7%	83%
COc1ccc(-c2coc3ncnc(N)c23)cc1	-4%	-3%
CNC(=O)c1sc(-n2cnc3cc(OC)c(OC)cc32)cc1OCc1ccccc1C(F)(F)F	-3% and -2%	4%
CCc1nccc2c1nc(-c1nonc1N)n2CC	-3% and 0%	-3%
CCS(=O)(=O)c1ccc(OC)c(Nc2ncc(-c3cccc(-c4ccccc4F)c3)o2)c1	10% and 5%	79%
COC(=O)Nc1nc2cc(Oc3ccc(NC(=O)Nc4cccc(Br)c4)cc3)ccc2[nH]1	-3% and 0%	4%
COc1cccc(/C=N/Nc2ncnc3c2cnn3-c2cccc(OC)c2)c1	-1% and 1%	-6%
COc1ccc(-c2nn3ncccc3c2-c2ccnc(Nc3cccc(C(F)(F)F)c3)n2)cc1	-1% and 0%	6%
COc1ccc(-c2nn3ncccc3c2-c2ccnc(Nc3ccc(F)c(F)c3)n2)cc1	-4% and -3%	-4%
[O-][S+]1CCN(Cc2ccc(-c3ccc4ncnc(Nc5ccc(OCc6ccccc6)c(Cl)c5)c4c3)o2)CC1	-3%	-5%
Cc1ccc2c(c1)/C(=N/Nc1ccc(S(N)(=O)=O)cc1)C(=O)N2	-1% and 1%	66%
Fc1ccc(-c2nc3n(c2-c2ccncc2)CCS3)cc1	-1% and -2%	73%
CN1CCN(C(=O)c2ccc(NC(=O)Nc3ccc(N(C)c4ccnc(Nc5ccc(CS(C)(=O)=O)cc5)n4)cc3)cc2)CC1	26% and 22%	0%
Cc1ccc2c(-c3ccnc(Nc4cccc(C(F)(F)F)c4)n3)c(-c3ccccc3)nn2n1	1% and 3%	4%
Cc1cc(O)cc(C)c1/C=C/c1cncc(C(=O)OC(C)(C)C)c1	-2% and 0%	-2%
COC(=O)c1sc(-n2cnc3cc(OC)c(OC)cc32)cc1OCc1ccccc1C(F)(F)F	13% and 11%	-1%
COc1ccc2ncn(-c3cc(O[C@H](C)c4ccccc4Cl)c(C(N)=O)s3)c2c1	-2%	86%
NC(=O)c1sc(-n2cnc3ccccc32)cc1OCc1ccccc1Br	2% and -1%	45%
Nc1nc(-c2cccc(Cl)c2)c(-c2ccc3ncccc3n2)s1	1%	1%
COc1cc(Nc2ncc3c(C)nc(-c4cccc(Oc5ccccc5)c4)n3n2)cc(OC)c1OC	59%	-6%

Compound	inhibition [1]	inhibition [2]
Cc1ccc(C(=O)NC2CCC2)cc1-c1ccc(C(=O)NCC2CC2)cc1	-1% and -2%	2%
Nc1nccc(-c2c(-c3ccc(F)cc3)ncn2CCCN2CCOCC2)n1	1% and 3%	4%
CCOc1ccc2c(-c3ccnc(Nc4cc(OC)cc(C(F)(F)F)c4)n3)cnn2n1	32% and 31%	-5%
Nc1ncc(-c2cccc(S(N)(=O)=O)c2)c2scc(-c3ccc(F)c(Cl)c3)c12	1% and 2%	3%
COc1cc(N2CCN(C(C)C)CC2)ccc1Nc1nc(Nc2ccc(F)cc2C(N)=O)c2cc[nH]c2n1	6% and 4%	4%
COc1cc2c(cc1Nc1nc(Nc3cccc(F)c3C(N)=O)c3cc[nH]c3n1)N(C(=O)CN1CCN(C(C)C)CC1)CC2	-1% and -2%	-7%
CCc1cccc(CC)c1/C=C/c1cncc(C(=O)NC)c1	-2% and -3%	-7%
O=C(O[C@H]1CN[C@H](C#Cc2cc3ncnc(Nc4ccc(Cc5ccccc5)cc4)c3s2)C1)N1CCOCC1	4% and 2%	5%
CCN1CCC(C(=O)Nc2n[nH]c3nnc(-c4cccc(F)c4F)cc23)CC1	-1% and -3%	-7%
Nc1nccc(-c2c(-c3ccc(F)cc3)ncn2C2CCC(O)CC2)n1 (stereo unspecified)	0% and 1%	29%
COc1ccc(-c2ccc3c(NC(=O)C4CC4)n[nH]c3n2)cc1	-1% and 0%	-5%
CCn1c(-c2nonc2N)nc2c(C#CC(C)(C)O)nc(OC[C@@H](N)c3ccccc3)cc21	39% and 40%	-1%
NS(=O)(=O)c1ccc(N/N=C2\C(=O)Nc3ccc(C(=O)NCCc4c[nH]cn4)cc32)cc1	17% and 15%	-1%
N#Cc1cccc(Nc2ncc(-c3ccccc3)o2)c1	1% and -3%	80%
O=C(Nc1n[nH]c2cc(-c3cc(F)ccc3F)ccc12)C1CC1	-3%	6%
CC1=C(C(=O)Nc2ccc3[nH]nc(C)c3c2)C(c2ccc(C(F)(F)F)cc2)CC(=O)N1 (stereo unspecified)	-1% and 0%	44%
COc1c(C(N)=O)cc(-c2ccc(Cl)cc2)cc1-c1ccc(S(N)(=O)=O)cc1	-1% and 0%	-6%
Cn1c(-c2nonc2N)nc2cnccc21	2% and 3%	-9%
O=C(O[C@H]1CN[C@H](C#Cc2cc3ncnc(Nc4ccc(OCc5cccc(F)c5)c(Cl)c4)c3s2)C1)N1CCOCC1	-1% and -3%	-3%
Nc1nonc1-c1nc2cnccc2n1C1CCCCC1	25%	1%

Compound	inhibition [1]	inhibition [2]
CS(=O)(=O)CCNCc1ccc(-c2ccc3ncnc(Nc4ccc(OCc5ccccc5)c(Br)c4)c3c2)o1	-2% and -1%	14%
FC(F)(F)c1cccc(Nc2nccc(-c3cnn4nc(-c5ccccc5)ccc34)n2)c1	7% and 5%	-2%
c1ccc(COc2ccc(Nc3ncnc4ccc(-c5ccco5)cc34)cc2)cc1	-3% and -1%	99%
COc1ccccc1-c1cc(/C=C2\C(=O)Nc3ncc(Br)cc32)cc(Br)c1O	10%	-2%
CS(=O)(=O)CCNCc1ccc(-c2ccc3ncnc(Nc4ccc(OCc5cccc(F)c5)c(C(F)(F)F)c4)c3c2)o1	1% and 4%	50%
COc1cc2c(cc1Nc1nc(Nc3ccsc3C(N)=O)c3cc[nH]c3n1)N(C(=O)CN(C)C)CCC2(C)C	39% and 44%	68%
NC(=O)c1cccc(Nc2nccc(Nc3cccc(F)c3)n2)c1	13% and 12%	50%
COc1cc2ncn(-c3cc(O[C@@H](C)c4ccccc4Cl)c(C(N)=O)s3)c2cc1OC	6% and 8%	69%
O=S(=O)(CCOCc1ccc(-c2ccc3ncnc(Nc4ccc(OCc5cccc(F)c5)c(Cl)c4)c3c2)o1)c1ccccc1	-2% and -1%	5%
CN1CCC(n2cnc(-c3ccc(F)cc3)c2-c2ccnc(NCCO)n2)CC1	-3%	-2%
CCn1c(-c2nonc2N)nc2cncc(C(=O)N3CCNCC3)c21	-2% and 0%	0%
COc1ccc(-c2ccncc2)cc1C(N)=O	1% and 3%	3%
Clc1ccc(CNc2nccc(-c3cnn4ncccc34)n2)cc1	0%	-4%
N#Cc1c(NC(=O)c2ccc(F)cc2)sc2c1CCCC2	-4% and -3%	1%
COC(=O)c1cncc(/C=C/c2c(C)cc(O)cc2C)c1	0% and 1%	-6%
c1ccc(-c2n[nH]cc2-c2ccnc(-c3ccc(OCCn4ccnc4)cc3)c2)nc1	-2% and 0%	0%
Fc1cccc(COc2ccc(Nc3ncnc4sc(-c5cccs5)cc34)cc2Cl)c1	-2%	-10%
c1cnn2ncc(-c3ccnc(NCCCN4CCOCC4)n3)c2c1	1% and 2%	81%
